Results reported in ChEMBL document CHEMBL1125637, “Benzocycloalkyl amines as novel C-termini for HIV protease inhibitors” (J Med Chem, 1991).

Target: Human immunodeficiency virus type 1 protease (Human immunodeficiency virus 1, UniProt Q72874)
Experiment: Inhibition of HIV protease
Assay type: functional

SMILES	IC50
CC(C)(C)OC(=O)N[C@@H](Cc1ccccc1)[C@@H](O)C[C@@H](Cc1ccccc1)C(=O)NC1c2ccccc2C[C@H]1C(N)=O (some centres not stated)	1.8 nM
CC(C)(C)OC(=O)N[C@@H](Cc1ccccc1)[C@@H](O)C[C@@H](Cc1ccccc1)C(=O)N[C@H]1CCc2ccccc21	21 nM
CC(C)(C)OC(=O)N[C@@H](Cc1ccccc1)[C@@H](O)C[C@@H](Cc1ccccc1)C(=O)NC1CCCc2ccccc21 (some centres not stated)	16 nM
CC(C)(C)OC(=O)N[C@@H](Cc1ccccc1)[C@@H](O)C[C@@H](Cc1ccccc1)C(=O)NC1c2ccccc2[C@@H](N)[C@H]1O (some centres not stated)	1.9 nM
CC(C)(C)OC(=O)N[C@@H](Cc1ccccc1)[C@@H](O)C[C@@H](Cc1ccccc1)C(=O)NC1Cc2ccccc21 (some centres not stated)	22 nM
CC(C)(C)OC(=O)N[C@@H](Cc1ccccc1)[C@@H](O)C[C@@H](Cc1ccccc1)C(=O)N[C@H]1c2ccccc2C[C@H]1O	0.3 nM
CC(C)(C)OC(=O)N[C@@H](Cc1ccccc1)[C@@H](O)C[C@@H](Cc1ccccc1)C(=O)N[C@@H]1CCc2ccccc21	19 nM
CC(C)(C)OC(=O)N[C@@H](Cc1ccccc1)[C@@H](O)C[C@@H](Cc1ccccc1)C(=O)N[C@H]1c2ccccc2[C@@H](O)[C@H]1O	0.1 nM
CC(C)(C)OC(=O)N[C@@H](Cc1ccccc1)[C@@H](O)C[C@@H](Cc1ccccc1)C(=O)NCCc1ccccc1	2800 nM
CC(C)(C)OC(=O)N[C@@H](Cc1ccccc1)[C@@H](O)C[C@@H](Cc1ccccc1)C(=O)NC1Cc2ccccc2C1	130 nM
CC(C)(C)OC(=O)N[C@@H](Cc1ccccc1)[C@@H](O)C[C@@H](Cc1ccccc1)C(=O)N[C@H]1c2ccccc2C[C@@H]1O (stereo in doubt; 8)	259 nM
CC(C)(C)OC(=O)N[C@@H](Cc1ccccc1)[C@@H](O)C[C@@H](Cc1ccccc1)C(=O)N[C@H]1c2ccccc2C[C@@H]1O (stereo in doubt; 10)	229 nM
